Earlier results as cited in patent US7858334B2, “Degradation of hydrophobic ester pesticides and toxins” (priority 2002, dated 2010).

SMILES: CC1(C)C(C=C(Cl)Cl)C1C(=O)OCc1cccc(Oc2ccccc2)c1 (racemic) [permethrin, 3-phenoxybenzyl(1RS)-cis, trans-3-(2,2-dichlorovinyl)-2,2-dimethylcyclopropane carboxylate]
- published solubility in aqueous solution: 0.5 µM
